Experimental data: PMC4102551, “Screening and Characterisation of Antimicrobial Properties of Semisynthetic Betulin Derivatives” (PLoS ONE, 2014)
In brackets after ≈: the same amount, converted by molar mass.

Experiments:
E. aerogenes ATCC 13048 = experiment: Broth microdilution assay, E. aerogenes; assay type: cell-based, Enterobacter aerogenes; details: for Inhibitory effect (%) E. aerogenes ATCC 13048: 50 µM, 24 h, inhibition of growth, mean ± SD
Description: (§1) Clinically used antimicrobial agents were selected based on international guidelines for antimicrobial testing and were utilised as reference compounds in the antimicrobial assays. The compounds were purchased from Sigma, Fluka and ICN Biomedicals. Stock solutions of the reference compounds were prepared either in double distilled sterile MilliQ water or in DMSO. Water solutions were sterilised through a 0.22 µm filter (VWR International). […] During the primary screening, these reference compounds were used as positive controls at the determined MIC on every plate.
(§2) Gram-negative strains Escherichia coli (ATCC 25922), Enterobacter aerogenes (ATCC 13048) and Pseudomonas aeruginosa (ATCC 27853), Gram-positive strains Staphylococcus aureus (ATCC 25923) and Enterococcus faecalis (ATCC 29212), and fungal strain Candida albicans (ATCC 90028) were obtained from Microbiologics Inc., and used for the antimicrobial screening. Strains were selected according to the guidelines set for clinical laboratories by Clinical and Laboratory Standards Institute [CLSI, formerly National Committee on Clinical Laboratory Standards [22]] and the European Committee on Antimicrobial Susceptibility Testing (EUCAST). Bacterial strains were grown on Mueller Hinton II Agar (MHA) (BBL, BD) and Mueller Hinton II broth (MHB) (BBL, BD), whereas Candida was initiated on Sabouraud Dextrose Agar (SDA) (Difco, BD) plates. Media were prepared into MilliQ water according to manufacturer’s instruction and autoclaved at 121°C for 15 min. Bacteria were plated on MHA plates and incubated at 37°C for 16–18 h. Bacterial suspension for the assays was prepared by subculturing the bacteria into MHB and by incubating at 37°C for 16–20 h at 110 rpm prior to the assay. Candida strain was grown on SDA plates at 27°C for 16–18 h and suspended into sterile 0.9% saline for the assay.
(§3) Antimicrobial screening assays were performed by broth microdilution method following the guidelines of CLSI and EUCAST. Bacterial suspensions were prepared as mentioned earlier and diluted with MHB to obtain a final inoculum of 5×10^5 colony-forming units (cfu)/mL in the assay for all the bacteria (based on OD620 values previously calibrated against plate counts). Candida suspension was prepared into sterile 0.9% saline solution as stated earlier. […] Assays were carried out in clear 96-well microtitre plates and initiated by dispensing an equal volume of microbial suspension and sample solution diluted into the assay medium into the wells. The plates were incubated for 24 h at 37°C (for Candida the incubation was at 35°C for 48 h) with agitation. Absorbance was measured at 620 nm with Victor plate reader (Wallac 1420, Perkin Elmer) at 0, 4 and 24 h with the bacteria, and at 0, 24 and 48 h with Candida. The antimicrobial activity of the samples was calculated from the absorbance values by comparing to the controls, and expressed as a percentage inhibition of growth. All the betulin derivatives were first assayed at the single concentration of 50 µM (two separate experiments, each with three replicates). […] The MIC90 value was expressed as the lowest concentration of compound that inhibited the microbial growth by >90%. The MIC90 results are means of three replicates from two separate experiments.

E. coli ATCC 25922 = experiment: Broth microdilution assay, E. coli; assay type: cell-based, Escherichia coli; details: for Inhibitory effect (%) E. coli ATCC 25922: 50 µM, 24 h, inhibition of growth, mean ± SD
Description: as §1, §2, §3

E. faecalis ATCC 29212 = experiment: Broth microdilution assay, E. faecalis; assay type: cell-based, Enterococcus faecalis; details: 50 µM, 24 h, inhibition of growth, mean ± SD
Description: as §1, §2, §3

P. aeruginosa ATCC 27853 = experiment: Broth microdilution assay, P. aeruginosa; assay type: cell-based, Pseudomonas aeruginosa; details: for Inhibitory effect (%) P. aeruginosa ATCC 27853: 50 µM, 24 h, inhibition of growth, mean ± SD
Description: as §1, §2, §3

S. aureus ATCC 25923 = experiment: Broth microdilution assay, S. aureus; assay type: cell-based, Staphylococcus aureus; details: 50 µM, 24 h, inhibition of growth, mean ± SD
Description: as §1, §2, §3

C. albicans ATCC 90028 = experiment: Broth microdilution assay, C. albicans; assay type: cell-based, Candida albicans; details: for Inhibitory effect (%) C. albicans ATCC 90028: 50 µM, 48 h at 35°C, inhibition of growth, mean ± SD
Description: as §1, §2, §3

Huh-7 cells = experiment: in vitro; assay type: cell-based, human; details: 24 h exposure; for Cytotoxicity (%) Huh-7 cells: 50 µM, ATP content, 5% FBS
Description: Huh-7 cells (derived from human hepatocellular carcinoma) were obtained as a gift from Prof. Ralf Bartenschlager (University of Heidelberg, Germany) and used for assessing the cytotoxicity against mammalian cells. HL cells (a heteroploid cell line used for propagating respiratory viruses) were used as a host cell line in the host-pathogen co-culture assay. […] Both cell lines were cultured at 37°C, 5% CO2 and 95% humidity.
The effect of the betulin derivatives on metabolic activity of Huh-7 cells was evaluated by measuring the intracellular ATP content of the cells after 24 h exposure to the compounds. In brief, cells were seeded at 20000 cells/well on white-walled microplates (PerkinElmer) and incubated at 37°C, 5% CO2 and 95% humidity. After culturing the cells overnight, the medium was replaced with the assay media (5% FBS) containing the sample and the cells were incubated for 24 h. Polymyxin B sulphate (15000 IU/mL) was used as a positive control. Following the incubation period, Promega’s CellTiter-Glo Cell Viability Assay was used to determine the intracellular ATP levels according to the manufacturer’s instructions. Cells were washed with 100 µL 6.7 mM PBS, pH 7.4 and 50 µL of fresh assay media and 50 µL of the CellTiter-Glo reagent were added into the wells. After 2 min shaking, followed by 10 min incubation at RT, luminometric signal was measured using Varioskan Flash plate reader (Thermo Fisher Scientific).

[1] = lowest concentration inhibiting growth by >90%

Compound | Inhibitory effect (%) E. aerogenes ATCC 13048 (E. aerogenes ATCC 13048) | Inhibitory effect (%) E. coli ATCC 25922 (E. coli ATCC 25922) | Inhibitory effect (%) E. faecalis ATCC 29212 (E. faecalis ATCC 29212) | Inhibitory effect (%) P. aeruginosa ATCC 27853 (P. aeruginosa ATCC 27853) | Inhibitory effect (%) S. aureus ATCC 25923 (S. aureus ATCC 25923) | Inhibitory effect (%) C. albicans ATCC 90028 (C. albicans ATCC 90028) | Cytotoxicity (%) Huh-7 cells (Huh-7 cells) | IC50 cytotoxicity Huh-7 cells (positive control) (Huh-7 cells; ATP assay) | MIC90 (C. albicans ATCC 90028; Candida albicans, ATCC90028, lowest concentration inhibiting growth by >90%, read-out: MIC90 of positive control, C. albicans) | MIC90 of positive control, E. aerogenes (E. aerogenes ATCC 13048; [1]) | MIC90 of positive control, E. coli (E. coli ATCC 25922; [1]) | MIC90 of positive control, P. aeruginosa (P. aeruginosa ATCC 27853; [1])
C=C(C)C1CCC2(COS(C)(=O)=O)CCC3(C)C(CCC4C5(C)CCC(OC(C)=O)C(C)(C)C5CCC43C)C12 (centres unmarked) [Compound 13] | 15.0±1.9% | -0.4±3.4% | 61.2±1.5% | 6.5±0.9% | -16.5±3.0% | -14.8±8.5% | 0.2±3.8% | – | – | – | – | –
CC(=O)OCC12CCC3(C(C)C)C1=C1C(CC4C5(C)CCC(OC(C)=O)C(C)(C)C5CCC4(C)C1(C)CC2)n1c(=O)n(-c2cccc(Cl)c2)c(=O)n13 (centres unmarked) [Compound 39] | 19.0±1.9% | 4.4±2.7% | 69.1±4.9% | 2.6±1.1% | 5.7±0.8% | 4.8±13.6% | 1.5±2.7% | – | – | – | – | –
CC(C)C12CCC3(COC(=O)c4ccccc4)CCC4(C)C(=C31)C(CC1C3(C)CCC(OC(=O)c5ccccc5)C(C)(C)C3CCC14C)n1c(=O)n(-c3ccccc3)c(=O)n12 (centres unmarked) [Compound 50] | 9.6±4.2% | -2.8±5.2% | 38.8±5.8% | 3.2±0.3% | 10.1±1.0% | -35.2±31.4% | -6.2±3.7% | – | – | – | – | –
CC(=O)OCC12CCC3(C(C)C)C1=C1C(CC4C5(C)CCC(OC(C)=O)C(C)(C)C5CCC4(C)C1(C)CC2)n1c(=O)n(-c2ccc(F)cc2)c(=O)n13 (centres unmarked) [Compound 37] | 17.7±2.2% | 5.0±8.8% | 48.2±7.7% | 4.6±0.7% | 6.5±0.9% | 11.7±9.0% | 0.8±3.4% | – | – | – | – | –
CC(=O)OCC12CCC3(C(C)C)C1=C1C(CC4C5(C)CCC(OC(C)=O)C(C)(C)C5CCC4(C)C1(C)CC2)n1c(=O)n(Cc2ccccc2)c(=O)n13 (centres unmarked) [Compound 40] | 15.1±3.4% | -0.8±2.3% | 66.0±1.5% | 1.7±0.6% | 4.1±1.1% | 4.4±10.5% | 2.3±2.2% | – | – | – | – | –
C=C(C)[C@@H]1CC[C@]2(COC(=O)c3cccnc3)CC[C@]3(C)[C@H](CC[C@@H]4[C@@]5(C)CC[C@H](O)C(C)(C)[C@@H]5CC[C@]43C)[C@@H]12 [Compound 6, 28-O-nicotinoylbetulin] | 7.5±1.3% | -0.6±6.8% | 60.1±4.0% | 2.2±2.2% | -17.7±2.0% | 36.7±7.6% | -0.4±3.4% | – | – | – | – | –
CCCCn1c(=O)n2n(c1=O)C1(C(C)C)CCC3(COC(C)=O)CCC4(C)C(=C31)C2CC1C2(C)CCC(OC(C)=O)C(C)(C)C2CCC14C (centres unmarked) [Compound 42] | 10.6±3.5% | 1.7±5.2% | 67.5±3.7% | 1.0±0.4% | 1.5±1.0% | -12.0±11.8% | -8.3±1.3% | – | – | – | – | –
CC(C)C12CCC3(COC(=O)C4CCCCC4)CCC4(C)C(=C31)C(CC1C3(C)CCC(OC(=O)C5CCCCC5)C(C)(C)C3CCC14C)n1c(=O)n(C(C)(C)C)c(=O)n12 (centres unmarked) [Compound 51] | 10.8±2.5% | -3.2±1.0% | 62.3±0.3% | 5.9±0.3% | 7.5±3.8% | -96.4±22.3% | -10.0±2.6% | – | – | – | – | –
C=C(C)C1CCC2(C=O)CCC3(C)C(CCC4C5(C)CCC(=O)C(C)(C)C5CCC43C)C12 (centres unmarked) [Compound 22] | 6.0±4.6% | -1.2±0.5% | 16.3±19.0% | 4.5±1.6% | 0.1±1.5% | -18.7±15.1% | 4.1±17.7% | – | – | – | – | –
Polymyxin B sulphate [reference compound] | – | – | – | – | – | – | – | 9361 IU/mL | – | – | – | –
C[C@@H]1[C@H](O)[C@@H](C)/C=C/C=C/C=C/C=C/C=C/C=C/C=C/[C@H](O[C@@H]2O[C@H](C)[C@@H](O)[C@H](N)[C@@H]2O)C[C@@H]2O[C@](O)(C[C@@H](O)C[C@@H](O)[C@H](O)CC[C@@H](O)C[C@@H](O)CC(=O)O[C@H]1C)C[C@H](O)[C@H]2C(=O)O [Amphotericin B, reference compound] | – | – | – | – | – | – | – | – | 2 µg/mL (≈ 2.16 µM) | – | – | –
Gentamycin [reference compound] | – | – | – | – | – | – | – | – | – | (0.5 µg/mL) | (2 µg/mL) | (8 µg/mL)
C=C(C)[C@@H]1CC[C@]2(C(=O)OC)CC[C@]3(C)[C@H](CC[C@@H]4[C@@]5(C)CCC(=O)C(C)(C)[C@@H]5CC[C@]43C)[C@@H]12 [Compound 25, methyl ester of betulonic acid] | 11.4±3.9% | -3.3±1.4% | – | 2.3±0.3% | 2.5±1.3% | -30.0±17.3% | 23.0±4.0% | – | – | – | – | –
